The source of these data is patent US8637510B2, “Morpholinothiazoles as alpha 7 positive allosteric modulators” (Janssen Pharmaceutica NV, priority 2009, dated 2014).

Data set [1] concerns the target T1, human alpha 7-wt nAChR (Homo sapiens, UniProt P36544).
T1 construct: expressed in transfected cells
The data set can be described thus: Ca2+ flux imaging (FDSS) (Protocol B). Format: cell-based. The following applies: for EC50: potentiation of 100 μM choline, compounds 0.01 μM to 30 μM, read-out: a7-PAM-G_[33]_pEC50 pEC50 (converted); for Emax: read-out: a7-PAM-G_[33]_Eff_Curve_FI % Efficacy. The essentials:
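PAM activity was measured as FDSS calcium fluorescence in α7-wt nAChR cells loaded with 2 μM Fluo-4AM, with compounds at 0.01–30 μM added alongside or 10 min ahead of sub-maximal 100 μM choline. Peak responses were normalised to choline-only efficacy, and EC50 was taken at half-maximal effect.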
(Calcium flux is commonly read through the fluorescence of an indicator in the cells.)

Where [2] appears, read: efficacy of 100 μM choline defined as 100% in the absence of a PAM.

Structures are written as SMILES. Counter-ions that a name gives are not always drawn.

T1 sequence (P36544 23-502): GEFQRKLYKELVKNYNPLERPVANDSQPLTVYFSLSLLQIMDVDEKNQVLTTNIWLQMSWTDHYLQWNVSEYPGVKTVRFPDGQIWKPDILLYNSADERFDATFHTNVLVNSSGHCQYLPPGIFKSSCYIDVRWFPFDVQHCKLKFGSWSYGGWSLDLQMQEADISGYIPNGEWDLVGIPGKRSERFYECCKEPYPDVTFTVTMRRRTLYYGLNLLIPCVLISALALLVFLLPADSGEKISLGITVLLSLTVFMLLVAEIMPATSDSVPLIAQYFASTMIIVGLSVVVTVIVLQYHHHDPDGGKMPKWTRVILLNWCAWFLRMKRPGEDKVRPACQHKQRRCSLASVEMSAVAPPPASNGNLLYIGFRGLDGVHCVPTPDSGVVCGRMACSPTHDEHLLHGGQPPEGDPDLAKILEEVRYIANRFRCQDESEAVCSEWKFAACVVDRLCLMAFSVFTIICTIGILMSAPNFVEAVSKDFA

As a reminder, the melting point is the temperature, or range, at which the solid turns liquid. As for `Cc1cc(-c2sc(N3CC(C)OC(C)C3)nc2CNC(=O)c2ccc(Cl)cc2)cc(C)n1` (racemic) [Compound 58, 4-chloro-N-[[2-[2,6-dimethyl-4-morpholinyl]-5-(2,6-dimethyl-4-pyridinyl)-4-thiazolyl]methyl]-benzamide], the melting point stood at 184 °C. Also, the EC50 in data set [1] is 295 nM.

Take `Cc1cc(-c2sc(N3CC(C)OC(C)C3)nc2CNC(=O)c2cc(C)on2)cc(C)n1` (racemic) [Compound 59, N-[[2-[2,6-dimethyl-4-morpholinyl]-5-(2,6-dimethyl-4-pyridinyl)-4-thiazolyl]methyl]-5-methyl-3-isoxazolecarboxamide]: the melting point came out at 166 °C. In data set [1] (setting [2]), the Emax worked out at 938%. In data set [1], the EC50 is 1620 nM.

The molecule `Cc1cc(-c2sc(N3CC(C)OC(C(F)(F)F)C3)nc2CNC(=O)CC2CC2)cc(C)n1` (racemic) [Compound 205, N-[[5-(2,6-dimethyl-4-pyridinyl)-2-[2-methyl-6-(trifluoromethyl)-4-morpholinyl]-4-thiazolyl]methyl]-cyclopropaneacetamide] yielded a melting point of 148 °C. Besides, the “a7-PAM-G_[33]_Eff_Curve_FI % Efficacy” value in data set [1] (setting [2]) is on record as 883%. The EC50 in data set [1] was 38 nM.

In the case of `Cc1cc(-c2sc(N3CCOC(C)C3)nc2CNC(=O)c2ccc(F)cc2C)cc(C)n1` (single isomer, unassigned) [Compound 70, N-[[5-(2,6-dimethyl-4-pyridinyl)-2-[(2S*)-2-methyl-4-morpholinyl]-4-thiazolyl]methyl]-4-fluoro-2-methyl-benzamide], the melting point came to 185 °C. Also, the EC50 in data set [1] was 81.3 nM.

Consider `Cc1cc(C(=O)NCc2nc(N3CCOC(C)C3)sc2-c2cc(C)nc(C)c2)on1` (single isomer, unassigned) [Compound 72, N-[[5-(2,6-dimethyl-4-pyridinyl)-2-[(2S*)-2-methyl-4-morpholinyl]-4-thiazolyl]methyl]-3-methyl-5-isoxazolecarboxamide], for which the melting point amounted to 138 °C. Further, in data set [1], the EC50 is 2000 nM.

Molecule `Cc1cc(-c2sc(N3CCOC(C)C3)nc2CNC(=O)c2cc(C)on2)cc(C)n1` (single isomer, unassigned) [Compound 74, N-[[5-(2,6-dimethyl-4-pyridinyl)-2-[(2R*)-2-methyl-4-morpholinyl]-4-thiazolyl]methyl]-5-methyl-3-isoxazolecarboxamide] returned a melting point of 167 °C. Moreover, in data set [1], the EC50 was 2000 nM.

As for `Cc1cc(-c2sc(N3CCOC(C)C3)nc2CNC(=O)c2ccc(F)cc2C)cc(C)n1` (single isomer, unassigned) [Compound 77, N-[[5-(2,6-dimethyl-4-pyridinyl)-2-[(2R*)-2-methyl-4-morpholinyl]-4-thiazolyl]methyl]-4-fluoro-2-methyl-benzamide], the melting point stood at 188 °C. Besides, the Emax in data set [1] (setting [2]) turned out to be 809%. For the same molecule, the EC50 in data set [1] was 107 nM.

Regarding `Cc1cc(-c2sc(N3CCOC(C)C3)nc2CNC(=O)c2cc(C)on2)cc(C)n1` (single isomer, unassigned) [Compound 79, N-[[5-(2,6-dimethyl-4-pyridinyl)-2-[(2S*)-2-methyl-4-morpholinyl)-4-thiazolyl]methyl]-5-methyl-3-isoxazolecarboxamide], the melting point was determined as 166 °C. The EC50 in data set [1] was 1660 nM.

In turn, `Cc1cc(-c2sc(N3CC(C)OC(C(F)(F)F)C3)nc2CNC(=O)CC2CC2)cc(C)n1` (single isomer, unassigned) [Compound 133, N-[[5-(2,6-dimethyl-4-pyridinyl)-2-[2-methyl-6-(trifluoromethyl)-4-morpholinyl]-4-thiazolyl]methyl]-cyclopropaneacetamide] returned a melting point of 156 °C. Besides, in data set [1], the EC50 is 115 nM.

For the molecule `Cc1cc(-c2sc(N3CC(C)OC(C(F)(F)F)C3)nc2CNC(=O)CC2CC2)cc(C)n1` (single isomer, unassigned) [Compound 206, N-[[5-(2,6-dimethyl-4-pyridinyl)-2-[2-methyl-6-(trifluoromethyl)-4-morpholinyl]-4-thiazolyl]methyl]-cyclopropaneacetamide], the melting point is 150 °C. Besides, the Emax in data set [1] (setting [2]) was determined as 985%. Further, the EC50 in data set [1] was 43.7 nM.

`Cc1cc(-c2sc(N3C[C@@H](C)O[C@@H](C)C3)nc2CNC(=O)c2ccc(Cl)c(Cl)c2)cc(C)n1` [Compound 35, 3,4-dichloro-N-[[2-[(2R,6S)-2,6-dimethyl-4-morpholinyl]-5-(2,6-dimethyl-4-pyridinyl)-4-thiazolyl]methyl]-benzamide] came in with a melting point of 185 °C. In data set [1] (setting [2]), the Emax is 599%. The EC50 in data set [1] was 132 nM.

The molecule `Cc1cc(-c2sc(N3C[C@@H](C)O[C@@H](C)C3)nc2CNC(=O)c2ccc(F)c(F)c2)cc(C)n1` [Compound 36, N-[[2-[(2R,6S)-2,6-dimethyl-4-morpholinyl]-5-(2,6-dimethyl-4-pyridinyl)-4-thiazolyl]methyl]-3,4-difluoro-benzamide] showed a melting point of 189 °C. In addition, the Emax in data set [1] (setting [2]) was determined as 869%. The EC50 in data set [1] is 74.1 nM.

`COCC(=O)NCc1nc(N2C[C@@H](C)O[C@@H](C)C2)sc1-c1cc(C)nc(C)c1` [Compound 37, N-[[2-[(2R,6S)-2,6-dimethyl-4-morpholinyl]-5-(2,6-dimethyl-4-pyridinyl)-4-thiazolyl]methyl]-2-methoxy-acetamide] returned a melting point of 150 °C. Besides, in data set [1] (setting [2]), the Emax stood at 293%.

`Cc1cc(-c2sc(N3C[C@@H](C)O[C@@H](C)C3)nc2CNC(=O)c2ccc(F)c(F)c2C)cc(C)n1` [Compound 38, N-[[2-[(2R,6S)-2,6-dimethyl-4-morpholinyl]-5-(2,6-dimethyl-4-pyridinyl)-4-thiazolyl]methyl]-3,4-difluoro-2-methyl-benzamide]: the melting point was 187 °C. Besides, the EC50 in data set [1] is 5.5 nM.

`CCCC(=O)NCc1nc(N2C[C@@H](C)O[C@@H](C)C2)sc1-c1cc(C)nc(C)c1` [Compound 41, N-[[2-[(2R,6S)-2,6-dimethyl-4-morpholinyl]-5-(2,6-dimethyl-4-pyridinyl)-4-thiazolyl]methyl]-butanamide]: the melting point was 155 °C. Moreover, the Emax in data set [1] (setting [2]) was 657%. For the same molecule, the EC50 in data set [1] is 102 nM.

`Cc1cc(-c2sc(N3C[C@@H](C)O[C@@H](C)C3)nc2CNC(=O)CC(C)C)cc(C)n1` [Compound 42, N-[[2-[(2R,6S)-2,6-dimethyl-4-morpholinyl]-5-(2,6-dimethyl-4-pyridinyl)-4-thiazolyl]methyl]-3-methyl-butanamide] yielded a melting point of 184 °C. Besides, in data set [1] (setting [2]), the Emax turned out to be 827%. The EC50 in data set [1] is 10.5 nM.

`Cc1cc(-c2sc(N3C[C@@H](C)O[C@@H](C)C3)nc2CNC(=O)C2C(C)(C)C2(C)C)cc(C)n1` [Compound 43, N-[[2-[(2R,6S)-2,6-dimethyl-4-morpholinyl]-5-(2,6-dimethyl-4-pyridinyl)-4-thiazolyl]methyl]-2,2,3,3-tetramethyl-cyclopropanecarboxamide] came in with a melting point of 197 °C. For the same molecule, the Emax in data set [1] (setting [2]) amounted to 663%. In addition, the EC50 in data set [1] is 60.3 nM.

Consider `Cc1cc(-c2sc(N3CCOC(C)(C)C3)nc2CNC(=O)c2conc2C)cc(C)n1` [Compound 182, N-[[2-(2,2-dimethyl-4-morpholinyl)-5-(2,6-dimethyl-4-pyridinyl)-4-thiazolyl]methyl]-3-methyl-4-isoxazolecarboxamide•HCl], for which, in data set [1] (setting [2]), the Emax is 702%. For the same molecule, the EC50 in data set [1] is 1450 nM.

With `Cc1cc(-c2sc(N3CCOC(C)(C)C3)nc2CNC(=O)C(C)C)cc(C)n1` [Compound 183, N-[[2-(2,2-dimethyl-4-morpholinyl)-5-(2,6-dimethyl-4-pyridinyl)-4-thiazolyl]methyl]-2-methyl-propanamide], the EC50 in data set [1] is 2750 nM.

With `Cc1cc(-c2sc(N3CCOC[C@@H]3C)nc2CNC(=O)c2conc2C)cc(C)n1` [Compound 185, N-[[5-(2,6-dimethyl-4-pyridinyl)-2-[(3S)-3-methyl-4-morpholinyl]-4-thiazolyl]methyl]-3-methyl-4-isoxazolecarboxamide], the Emax in data set [1] (setting [2]) was 835%. Further, in data set [1], the EC50 was 4790 nM.

Consider `Cc1cc(-c2sc(N3CCOC[C@@H]3C)nc2CNC(=O)c2cc(C)on2)cc(C)n1` [Compound 186, N-[[5-(2,6-dimethyl-4-pyridinyl)-2-[(3S)-3-methyl-4-morpholinyl]-4-thiazolyl]methyl]-5-methyl-3-isoxazolecarboxamide], for which, in data set [1] (setting [2]), the Emax is 945%. In addition, the EC50 in data set [1] is 3800 nM.

Take `Cc1cc(-c2sc(N3CCOC[C@@H]3C)nc2CNC(=O)C(C)C)cc(C)n1` [Compound 188, N-[[5-(2,6-dimethyl-4-pyridinyl)-2-[(3S)-3-methyl-4-morpholinyl]-4-thiazolyl]methyl]-2-methyl-propanamide]: the Emax in data set [1] (setting [2]) came to 685%. Further, the EC50 in data set [1] is 5010 nM.

On to `Cc1cc(-c2sc(N3C[C@@H](C)O[C@@H](C(F)(F)F)C3)nc2CNC(=O)CC2CC2)cc(C)n1` [Compound 203, N-[[5-(2,6-dimethyl-4-pyridinyl)-2-[(2R,6R)-2-methyl-6-(trifluoromethyl)-4-morpholinyl]-4-thiazolyl]methyl]-cyclopropaneacetamide], for which the EC50 in data set [1] is 7.24 nM.

In the case of `Cc1cc(-c2sc(N3C[C@@H](C(F)(F)F)O[C@@H](C)C3)nc2CNC(=O)CC2CC2)cc(C)n1` [Compound 204, N-[[5-(2,6-dimethyl-4-pyridinyl)-2-[(2S,6S)-2-methyl-6-(trifluoromethyl)-4-morpholinyl]-4-thiazolyl]methyl]-cyclopropaneacetamide], the Emax in data set [1] (setting [2]) was 392%. In addition, the EC50 in data set [1] was 31.6 nM.
